The source of these data is patent publication US6716881B2, “Carbanilides used as pesticides” (Bayer Aktiengesellschaft, priority 1996, dated 2004).

For one test, the system named is Coriolus versicolor. Kind of test: Inhibitory test with giant colonies of Basidiomycetes (Coriolus versicolor). The format is cell-based. Particulars: after 3 or 7 days at 26° C., vs untreated control; for Inhibition of the growth of the hypha in % with Coriolus versicolor at an active compound concentration of 1 ppm: 1 ppm in agar; for Inhibition of the growth of the hypha in % with Coriolus versicolor at an active compound concentration of 3 ppm: 3 ppm in agar; for Inhibition of the growth of the hypha in % with Coriolus versicolor at an active compound concentration of 6 ppm: 6 ppm in agar. Here is the method:
(§1) Inhibitory Test with Giant Colonies of Basidiomycetes.
(§2) To produce a suitable preparation of active compound, 0.2 parts by weight of active compound are admixed with 99.8 parts by weight of the abovementioned solvent.
(§3) An agar which has been prepared using malt extract peptone is mixed in the liquid state with the preparation of active compound at the particular desired application rate. After the agar has set, the resulting nutrient medium is incubated at 26° C. with pieces of mycelium which had been punched out of colonies of Coniophora puteana or Coriolus versicolor.
(§4) Evaluation is carried out after 3 or 7 days' storage at 26° C. by measuring the growth of the hypha and scoring the resulting inhibition in percent in comparison to the untreated control. 0% means an inhibition of growth which corresponds to that of the untreated control, while an inhibition of growth of 100% means that no growth of the hypha is observed.

Another test relates to Coniophora puteana. The test can be described thus: Inhibitory test with giant colonies of Basidiomycetes (Coniophora puteana). Format: cell-based. Particulars: after 3 or 7 days at 26° C., vs untreated control; for Inhibition of the growth of the hypha in % with Coniophora puteana at an active compound concentration of 1 ppm: 1 ppm in agar; for Inhibition of the growth of the hypha in % with Coniophora puteana at an active compound concentration of 3 ppm: 3 ppm in agar; for Inhibition of the growth of the hypha in % with Coniophora puteana at an active compound concentration of 6 ppm: 6 ppm in agar. Here is the method:
as §1, §2, §3, §4

In the case of `Cc1nc(C(F)(F)F)c(C(=O)Nc2ccccc2C=Cc2ccccc2)s1` [Example 5], in the test on Coriolus versicolor, the “Inhibition of the growth of the hypha in % with Coriolus versicolor at an active compound concentration of 1 ppm” value was determined as 70%, the “Inhibition of the growth of the hypha in % with Coriolus versicolor at an active compound concentration of 3 ppm” value came to 90% and the “Inhibition of the growth of the hypha in % with Coriolus versicolor at an active compound concentration of 6 ppm” value is 100%. Further, in the test on Coniophora puteana, the “Inhibition of the growth of the hypha in % with Coniophora puteana at an active compound concentration of 1 ppm” value worked out at 70%, the “Inhibition of the growth of the hypha in % with Coniophora puteana at an active compound concentration of 3 ppm” value was found to be 80% and the “Inhibition of the growth of the hypha in % with Coniophora puteana at an active compound concentration of 6 ppm” value was 100%.

With `Cc1nn(C)cc1C(=O)Nc1ccccc1C=Cc1ccccc1` [Example 18], in the test with Coriolus versicolor, the “Inhibition of the growth of the hypha in % with Coriolus versicolor at an active compound concentration of 1 ppm” value was determined as 70%, the “Inhibition of the growth of the hypha in % with Coriolus versicolor at an active compound concentration of 3 ppm” value is reported as 100% and the “Inhibition of the growth of the hypha in % with Coriolus versicolor at an active compound concentration of 6 ppm” value is listed as 100%. Also, in the test on Coniophora puteana, the “Inhibition of the growth of the hypha in % with Coniophora puteana at an active compound concentration of 1 ppm” value is reported as 70%, the “Inhibition of the growth of the hypha in % with Coniophora puteana at an active compound concentration of 3 ppm” value is recorded as 100% and the “Inhibition of the growth of the hypha in % with Coniophora puteana at an active compound concentration of 6 ppm” value is given as 100%.

Turning to `Cc1nn(C)c(Cl)c1C(=O)Nc1ccccc1CSc1ccccc1` [Example 39], in the test on Coriolus versicolor, the “Inhibition of the growth of the hypha in % with Coriolus versicolor at an active compound concentration of 1 ppm” value is listed as 90%, the “Inhibition of the growth of the hypha in % with Coriolus versicolor at an active compound concentration of 3 ppm” value is given as 100% and the “Inhibition of the growth of the hypha in % with Coriolus versicolor at an active compound concentration of 6 ppm” value is recorded as 100%. Further, in the test with Coniophora puteana, the “Inhibition of the growth of the hypha in % with Coniophora puteana at an active compound concentration of 1 ppm” value came to 70%, the “Inhibition of the growth of the hypha in % with Coniophora puteana at an active compound concentration of 3 ppm” value is reported as 80% and the “Inhibition of the growth of the hypha in % with Coniophora puteana at an active compound concentration of 6 ppm” value is recorded as 90%.

With `Cc1nc(C(F)(F)F)c(C(=O)Nc2ccccc2CSc2ccccc2)s1` [Example 40], in the test with Coriolus versicolor, the “Inhibition of the growth of the hypha in % with Coriolus versicolor at an active compound concentration of 1 ppm” value came out at 40%, the “Inhibition of the growth of the hypha in % with Coriolus versicolor at an active compound concentration of 3 ppm” value stood at 70% and the “Inhibition of the growth of the hypha in % with Coriolus versicolor at an active compound concentration of 6 ppm” value was found to be 90%. For the same compound, in the test with Coniophora puteana, the “Inhibition of the growth of the hypha in % with Coniophora puteana at an active compound concentration of 1 ppm” value is on record as 50%, the “Inhibition of the growth of the hypha in % with Coniophora puteana at an active compound concentration of 3 ppm” value is reported as 60% and the “Inhibition of the growth of the hypha in % with Coniophora puteana at an active compound concentration of 6 ppm” value is recorded as 70%.

With `Cc1ccc(SCc2ccccc2NC(=O)c2c(C)nn(C)c2Cl)cc1` [Example 45], in the test with Coriolus versicolor, the “Inhibition of the growth of the hypha in % with Coriolus versicolor at an active compound concentration of 1 ppm” value is listed as 90%, the “Inhibition of the growth of the hypha in % with Coriolus versicolor at an active compound concentration of 3 ppm” value came to 100% and the “Inhibition of the growth of the hypha in % with Coriolus versicolor at an active compound concentration of 6 ppm” value stood at 100%. In the test on Coniophora puteana, the “Inhibition of the growth of the hypha in % with Coniophora puteana at an active compound concentration of 1 ppm” value was found to be 70%, the “Inhibition of the growth of the hypha in % with Coniophora puteana at an active compound concentration of 3 ppm” value came out at 80% and the “Inhibition of the growth of the hypha in % with Coniophora puteana at an active compound concentration of 6 ppm” value is given as 90%.

Consider `Cc1ccc(OCc2ccccc2NC(=O)c2cn(C)nc2C(F)(F)F)c(C)c1` [Example 52], for which, in the test on Coriolus versicolor, the “Inhibition of the growth of the hypha in % with Coriolus versicolor at an active compound concentration of 1 ppm” value worked out at 90%, the “Inhibition of the growth of the hypha in % with Coriolus versicolor at an active compound concentration of 3 ppm” value was determined as 100% and the “Inhibition of the growth of the hypha in % with Coriolus versicolor at an active compound concentration of 6 ppm” value turned out to be 100%. Besides, in the test on Coniophora puteana, the “Inhibition of the growth of the hypha in % with Coniophora puteana at an active compound concentration of 1 ppm” value was found to be 80%, the “Inhibition of the growth of the hypha in % with Coniophora puteana at an active compound concentration of 3 ppm” value is 90% and the “Inhibition of the growth of the hypha in % with Coniophora puteana at an active compound concentration of 6 ppm” value turned out to be 100%.

Take `CC1=C(C(=O)Nc2ccccc2OCc2ccc(C)cc2C)SCCO1` [Example 78]: in the test on Coriolus versicolor, the “Inhibition of the growth of the hypha in % with Coriolus versicolor at an active compound concentration of 1 ppm” value is given as 90%, the “Inhibition of the growth of the hypha in % with Coriolus versicolor at an active compound concentration of 3 ppm” value came out at 90% and the “Inhibition of the growth of the hypha in % with Coriolus versicolor at an active compound concentration of 6 ppm” value is on record as 100%. Moreover, in the test with Coniophora puteana, the “Inhibition of the growth of the hypha in % with Coniophora puteana at an active compound concentration of 1 ppm” value came to 70%, the “Inhibition of the growth of the hypha in % with Coniophora puteana at an active compound concentration of 3 ppm” value was determined as 80% and the “Inhibition of the growth of the hypha in % with Coniophora puteana at an active compound concentration of 6 ppm” value worked out at 90%.

Turning to `Cc1nn(C)cc1C(=O)Nc1ccccc1CSc1ccc(Cl)cc1` [Example 81], in the test with Coriolus versicolor, the “Inhibition of the growth of the hypha in % with Coriolus versicolor at an active compound concentration of 1 ppm” value came out at 90%, the “Inhibition of the growth of the hypha in % with Coriolus versicolor at an active compound concentration of 3 ppm” value is reported as 90% and the “Inhibition of the growth of the hypha in % with Coriolus versicolor at an active compound concentration of 6 ppm” value was 100%. Besides, in the test with Coniophora puteana, the “Inhibition of the growth of the hypha in % with Coniophora puteana at an active compound concentration of 1 ppm” value is reported as 70%, the “Inhibition of the growth of the hypha in % with Coniophora puteana at an active compound concentration of 3 ppm” value is recorded as 90% and the “Inhibition of the growth of the hypha in % with Coniophora puteana at an active compound concentration of 6 ppm” value is listed as 100%.

Take `Cc1nn(C)c(Cl)c1C(=O)Nc1ccccc1CSc1ccc(Cl)cc1` [Example 84]: in the test with Coriolus versicolor, the “Inhibition of the growth of the hypha in % with Coriolus versicolor at an active compound concentration of 1 ppm” value came to 90%, the “Inhibition of the growth of the hypha in % with Coriolus versicolor at an active compound concentration of 3 ppm” value is reported as 100% and the “Inhibition of the growth of the hypha in % with Coriolus versicolor at an active compound concentration of 6 ppm” value is on record as 100%. Besides, in the test on Coniophora puteana, the “Inhibition of the growth of the hypha in % with Coniophora puteana at an active compound concentration of 1 ppm” value turned out to be 80%, the “Inhibition of the growth of the hypha in % with Coniophora puteana at an active compound concentration of 3 ppm” value is 80% and the “Inhibition of the growth of the hypha in % with Coniophora puteana at an active compound concentration of 6 ppm” value was 100%.

In the case of `Cc1nc(C(F)(F)F)c(C(=O)Nc2ccccc2CSc2ccc(Cl)cc2)s1` [Example 85], in the test with Coriolus versicolor, the “Inhibition of the growth of the hypha in % with Coriolus versicolor at an active compound concentration of 1 ppm” value is 70%, the “Inhibition of the growth of the hypha in % with Coriolus versicolor at an active compound concentration of 3 ppm” value turned out to be 70% and the “Inhibition of the growth of the hypha in % with Coriolus versicolor at an active compound concentration of 6 ppm” value came out at 90%. In addition, in the test with Coniophora puteana, the “Inhibition of the growth of the hypha in % with Coniophora puteana at an active compound concentration of 1 ppm” value is 70%, the “Inhibition of the growth of the hypha in % with Coniophora puteana at an active compound concentration of 3 ppm” value is recorded as 80% and the “Inhibition of the growth of the hypha in % with Coniophora puteana at an active compound concentration of 6 ppm” value turned out to be 80%.

Turning to `Cc1ccc(OCc2ccccc2NC(=O)c2cn(C)nc2C(F)F)cc1` [Example 119], in the test with Coriolus versicolor, the “Inhibition of the growth of the hypha in % with Coriolus versicolor at an active compound concentration of 1 ppm” value is listed as 100%, the “Inhibition of the growth of the hypha in % with Coriolus versicolor at an active compound concentration of 3 ppm” value was 100% and the “Inhibition of the growth of the hypha in % with Coriolus versicolor at an active compound concentration of 6 ppm” value was 100%. For the same compound, in the test on Coniophora puteana, the “Inhibition of the growth of the hypha in % with Coniophora puteana at an active compound concentration of 1 ppm” value was determined as 100%, the “Inhibition of the growth of the hypha in % with Coniophora puteana at an active compound concentration of 3 ppm” value was 100% and the “Inhibition of the growth of the hypha in % with Coniophora puteana at an active compound concentration of 6 ppm” value turned out to be 100%.

In the case of `Cn1cc(C(=O)Nc2ccccc2COc2ccccc2)c(C(F)F)n1` [Example 123], in the test with Coriolus versicolor, the “Inhibition of the growth of the hypha in % with Coriolus versicolor at an active compound concentration of 1 ppm” value worked out at 100%, the “Inhibition of the growth of the hypha in % with Coriolus versicolor at an active compound concentration of 3 ppm” value amounted to 100% and the “Inhibition of the growth of the hypha in % with Coriolus versicolor at an active compound concentration of 6 ppm” value was determined as 100%. Further, in the test on Coniophora puteana, the “Inhibition of the growth of the hypha in % with Coniophora puteana at an active compound concentration of 1 ppm” value was 100%, the “Inhibition of the growth of the hypha in % with Coniophora puteana at an active compound concentration of 3 ppm” value is on record as 100% and the “Inhibition of the growth of the hypha in % with Coniophora puteana at an active compound concentration of 6 ppm” value turned out to be 100%.
